In publication PMC7417721, “Cell cycle exit during bortezomib‐induced osteogenic differentiation of mesenchymal stem cells was mediated by Xbp1s‐upregulated p21^Cip1 and p27^Kip1” (Journal of Cellular and Molecular Medicine, 2020):
pIC50: −log10 of the molar value. Where two headings read alike, the source gives them in different places.

Legend:
[1] = system: Grp78, Chop, Xbp1s, Atf4 in mBM-MSCs; assay: Western blotting of ER stress signalling proteins; format: cell-based, mouse; conditions: 24 h
Experimental: (§1) Western blotting was performed as described previously. ^16 Briefly, mBM‐MSCs were cultured with indicated doses of bortezomib for 24 h; then, the cells were lysed in radioimmunoprecipitation assay (RIPA) buffer. Equal amount of proteins was loaded on 10% sodium dodecyl sulphate‐polyacrylamide gel electrophoresis (SDS‐PAGE) gel and was then electrotransferred to polyvinylidene difluoride (PVDF) membrane immunoblotted for specific primary antibodies. Immunoblots were visualized using horseradish peroxidase (HRP)‐conjugated secondary antibodies (Jackson ImmunoResearch Laboratories, West Grove, PA, USA) and the enhanced chemiluminescence (ECL) Western Blot Detection Kit (Phygene Life Sciences, Fuzhou, Fujian, China). The chemiluminescent blots were captured by using digital imaging with a charge‐coupled device (CCD) camera system MiniChemi 610 and analysed by Lane 1D™ analysis software (Sage, Beijing, China).

[2] = system: cyclin D3, cyclin E1, Cdk2, Cdk4, p21Cip1, p27Kip1 in mBM-MSCs; assay: Western blotting of cell cycle regulatory components (cyclins, CDKs, CKIs); format: cell-based, mouse; conditions: 24 h
Experimental: as §1

[3] = system: p21Cip1 and p27Kip1 mRNA in mBM-MSCs; assay: Real-time PCR of p21Cip1 and p27Kip1 mRNA; format: cell-based, mouse; conditions: 24 h
Experimental: Total RNA from cells was extracted using Ultrapure RNA Kit (DNase I) (CWBIO, Beijing, China) according to the manufacturer's instructions. Reverse transcription was performed using HiFiScript cDNA Synthesis Kit (CWBIO, Beijing, China). Real‐time PCR was performed using UltraSYBR Mixture (CWBIO, Beijing, China) and a CFX96™ Real‐Time PCR Detection System (Bio‐Rad, Hercules, CA, USA). The thermal cycling conditions included 2 min at 50°C and 10 min at 95°C, followed by 40 cycles of 95°C for 15 s, 58°C for 30 s and 72°C for 30 s. Mouse β‐actin was used as internal control. The relative expression levels of each gene were analysed using the 2^‐ΔΔCt method. The primers were designed using Primer3Plus platform (http://www.bioinformatics.nl/primer3plus) and synthesized by Sangon Biotech (Shanghai, China).

mBM-MSCs [4] = assay: Cell cycle analysis (propidium iodide, flow cytometry); format: cell-based, mouse; conditions: 24 h; for proportion of S phase cells: mean ± SEM of three experiments (control 32.017 ± 1.991); for percentage of cells in G0/G1 phase: mean ± SEM of three experiments (control 55.14 ± 5.132)
Experimental: mBM‐MSCs (5 × 10^5 cells) treated with various concentrations of bortezomib for 24 h were harvested, washed with PBS solution, fixed in 70% ethanol and kept at −20°C overnight. Cells were then resuspended in a buffer containing […] propidium iodide and […] RNase A (Solarbio Life Sciences, Beijing, China). Samples were analysed using a BD FACSCanto II flow cytometer. Data were acquired and analysed using CellQuest and ModFit software (BD Biosciences, San Jose, CA, USA).

mBM-MSCs [5] = assay: Alizarin Red S staining of mineralized matrix (osteogenic differentiation); format: cell-based, mouse; conditions: 8 days
Experimental: mBM‐MSCs were plated in 35‐mm‐diameter culture dishes and grown in DMEM containing 10% FBS, 100 U/mL penicillin, 100 μg/mL streptomycin, and 2 mM L‐glutamine at 37°C in a humidified incubator with 5% CO2 in the air. When cell density reached 70%‐80% confluence, the cells were subsequently cultured in the presence or absence of bortezomib at the indicated concentrations for 8 days. The culture medium was changed every 3 days. mBM‐MSCs cultured in an osteogenic induction media containing […] ascorbic acid and 10 mM β‐glycerophosphate sodium were used as a positive control. For Alizarin Red S (ARS) (Solarbio Life Sciences, Beijing, China) staining, mBM‐MSCs were fixed with 4% formaldehyde for 10 min, then rinsed twice with phosphatebuffered saline (PBS) at room temperature. The cells were then stained with 1% ARS (pH 4.2) for up to 15 min at room temperature. Images of mBM‐MSCs stained with ARS were captured and stored digitally.

mBM-MSCs [6] = assay: MTT cell viability assay; conditions: for pIC50: Mus musculus, read-out: IC50, cell viability
Experimental: mBM‐MSCs were seeded at a cell density of 5 × 10^3 cells/mL in 96‐well plates and allowed to attach to the wells for 24 h. Cells were then treated with various concentrations of bortezomib. After 24‐h and 48‐h treatment, 10 µL of 3‐(4,5‐dimethylthiazol‐2‐yl)‐2,5‐diphenyltetrazolium bromide (MTT) solution (Sigma‐Aldrich, Burlington, MA, USA) was added to each well to a final concentration of 0.5 mg/mL. The supernatant medium was then discarded, and a volume of 150 µL of DMSO was added to each well to lyse the crystal. The plates were agitated for 15 min to ensure the dissolution of any remaining crystals. The absorbance in the relevant wells was measured at 490 nm using an Ultra Microplate Reader (ELx800, BioTek Instruments, Winooski, VT, USA). Each experiment was reproduced three times in duplicate.

mBM-MSCs [7] = assay: EdU cell proliferation assay (flow cytometry); format: cell-based, mouse; conditions: various concentrations, 24 h
Experimental: 5‐ethynyl‐2′‐deoxyuridine (EdU) incorporation assay was performed to measure cell proliferation with the kit (Molecular Probes, Eugene, OR, USA) according to the manufacturer's instructions. Briefly, mBM‐MSCs were seeded and grown at a density of 70%‐80% confluence in 35‐mm culture dishes and then treated with various concentrations of bortezomib for 24 h. EdU was added to the culture media 4 h before the harvest. The cells were detected by flow cytometry using a BD FACSCanto II instrument. Data were analysed using FlowJo 7.6.2 software (Tree Star, Ashland, OR, USA).

[8] = system: Runx2, Sp7, Col1A1, ALP, OCN/BGLAP in mBM-MSCs; assay: Western blotting of osteogenesis-related proteins; format: cell-based, mouse; conditions: indicated concentrations, 24 h, Figure S1
Experimental: as §1

[9] = MKC3946 10 nM with bortezomib 2.5 nM

Cn1cc(-c2ccc3c(c2)CCN3C(=O)Cc2cccc(C(F)(F)F)c2)c2c(N)ncnc21 [GSK2606414]
Atf4 (protein) ([1]; in the presence of bortezomib): marked decrease
expression of p21Cip1 (protein) ([2]; in the presence of bortezomib): no significant effects
expression of p27Kip1 (protein) ([2]; in the presence of bortezomib): no significant effects

CN1CCN(C(=O)c2ccc(-c3ccc4c(C=O)c(O)ccc4c3)s2)CC1 [MKC3946]
mRNA level of p21Cip1 [3, 9]: aborted up‐regulation
mRNA level of p27Kip1 [3, 9]: aborted up‐regulation
cell cycle distribution (mBM-MSCs [4]; 10 nM MKC3946 alone, Figure S2): no effects
percentage of S phase (mBM-MSCs [4]; combination of 10 nM MKC3946 with 2.5 nM bortezomib, Figure S2): significantly decreased
bortezomib-induced Xbp1s (protein) ([1]; in the presence of bortezomib): aborted
expression of p21Cip1 (protein) ([2]; in the presence of bortezomib): decrease
expression of p27Kip1 (protein) ([2]; in the presence of bortezomib): decrease

CC(C)C[C@H](NC(=O)[C@H](Cc1ccccc1)NC(=O)c1cnccn1)B(O)O [bortezomib, Bortezomib]
calcium deposition (ARS staining) versus control cells (mBM-MSCs [5]; 2.5 nM): much higher amounts of calcium phosphate crystals than the control cells
calcium deposition (ARS staining) versus control cells (mBM-MSCs [5]; 5 nM): much higher amounts of calcium phosphate crystals than the control cells
mRNA level of p21Cip1 ([3]; 2.5 nM): significantly up‐regulated
mRNA level of p27Kip1 ([3]; 2.5 nM): significantly up‐regulated
pIC50 (mBM-MSCs [6]; 24 h): 8.05
pIC50 (mBM-MSCs [6]; 48 h): 8.18
doses resulting in cytotoxicity to mBM-MSCs (mBM-MSCs [6]; mBM-MSCs, MTT, 24 h and 48 h): higher than 5 nM
numbers of EdU-positive mBM-MSCs (mBM-MSCs [7]): dose‐dependently decreased
proportion of cells in the G2/M phase (mBM-MSCs [4]; 2.5 nM and 5 nM): no significant change
proportion of S phase cells (mBM-MSCs [4]; 2.5 nM): 21.807 ± 2.844%
percentage of cells in G0/G1 phase (mBM-MSCs [4]; 2.5 nM): 67.36 ± 6.067%
proportion of S phase cells (mBM-MSCs [4]; 5 nM): 19.940 ± 4.321%
percentage of cells in G0/G1 phase (mBM-MSCs [4]; 5 nM): 68.117 ± 2.743%
expression of Atf4 ([1]; indicated concentrations): activated
expression of ER stress marker Chop ([1]; indicated concentrations): increased expression levels
expression of ER stress marker Grp78 ([1]; indicated concentrations): increased expression levels
expression of Xbp1s ([1]; indicated concentrations): activated
expression of Col1A1 [8]: induce the expression
expression of Runx2 [8]: induce the expression
expression of Sp7 [8]: induce the expression
expression of alkaline phosphatase (ALP) [8]: induce the expression
expression of osteocalcin (OCN/BGLAP) [8]: induce the expression
expression of Cdk2 (protein) ([2]; indicated concentrations): markedly decreased
expression of Cdk4 (protein) ([2]; indicated concentrations): markedly decreased
expression of cyclin D3 (protein) ([2]; indicated concentrations): no effects
expression of cyclin E1 (protein) ([2]; indicated concentrations): no effects
expression of p21Cip1 (protein) ([2]; indicated concentrations): significantly increased
expression of p27Kip1 (protein) ([2]; indicated concentrations): significantly increased
